These results are taken from patent US20160310481A1, “LAQUINIMOD FOR TREATMENT OF CANNABINOID RECEPTOR TYPE 1(CB1) MEDIATED DISORDERS” (Teva Pharmaceutical Industries, Ltd., priority 2012, published 2016).

One experiment has as its system spinal cord of EAE mice. The experiment can be described thus: Histological evaluation of spinal cord of EAE mice. In kind it is in vivo, C57BL/6 mice. Here is the method: At least 5 mice per group were transcardially perfused through the left cardiac ventricle with saline, plus EDTA 0.5 M for 5-10 min followed by fixation with cold 4% paraformaldehyde (PFA) (Sigma, St Louis, Mo.) in 0.1 M phosphate buffer (pH 7.4). Subsequently, spinal cords and brains were carefully dissected out and post-fixed in 4% PFA for 3-4 h and processed for paraffin embedding. The quantification of neurological damage was performed on 5 µm paraffin CNS sections obtained from HC, LQ-EAE mice, and untreated-EAE mice. Three different staining were used to detect inflammatory infiltrates (H&E), demyelination (Luxol fast blue) and axonal damage (Bielshowsky). Imunohistochemistry for CD3 (pan-T cell marker, Serotec Ltd, Oxford, UK), and BS-I isolectin B4 (biotinilated from Sigma, St Louis, Mo.) was performed to investigate T cells and macrophages within the inflammatory cellular infiltrates, respectively. […] Neuropathological findings were quantified on an average of 18-20 complete cross-sections of spinal cord per mouse taken at 8 different levels of the spinal cord. The number of perivascular inflammatory infiltrates were calculated and expressed as the numbers of inflammatory infiltrates per mm^2, demyelinated areas and axonal loss were expressed as percentage of damaged area per mm2. The number of T cells and macrophages lining within the subarachnoid space or infiltrating the CNS parenchyma was calculated and expressed as the number of cells per mm2. An Olympus microscope for the acquisitions of pictures was used. Statistical analysis was performed using the unpaired Student's t-test.

Another experiment deals with EAE mice. The experiment can be described thus: EAE induction and disease evaluation, preventive daily s.c. LQ treatment. The note with it: preventive treatment 0-26 dpi, daily s.c. 1-25 mg/kg. Format: in vivo, C57BL/6 mice. Here is the method: Female C57BL/6 mice at 6-8 weeks of age were purchased from Charles River (Calco, Milan, Italy) and housed in pathogen-free conditions. All procedures involving animals were performed according to the guidelines of the San Raffaele Scientific Institute Institutional Animal Care and Use Committee.
EAE was induced by immunization with 3 subcutaneous injection of 100 μl each, containing a total of 200 μg of myelin oligodendrocyte glycoprotein (MOG) peptide 35-55 (Multiple Peptide System) in incomplete Freund's adjuvant and 8 mg/ml of Mycobacterium tuberculosis (strain H37Ra; Difco). Pertussis toxin (Sigma) (500 ng) was injected on the day of the immunization and again two days later. Body weight and clinical score (0=healthy; 1=limp tail; 2=ataxia and/or paresis of hindlimbs; 3=paralysis of hindlimbs and/or paresis of forelimbs; 4=tetraparalysis; 5=moribund or death) were recorded daily.
EAE mice were treated once daily by subcutaneous (s.c.) injection of LQ (supplied by Teva Pharmaceutical Industries, Netanya, Israel) (thereafter referred as LQ-EAE). LQ was administered at different doses (from 1 to 25 mg/kg) starting the same day of immunization up to 26 days post immunization (d.p.i.). Sham treated EAE mice (thereafter referred as untreated-EAE) and healthy control mice (thereafter referred as HC) were used as controls. […]

In experiment [1] the test system is striatal glutamatergic transmission. The experiment can be described thus: Whole-cell patch clamp of striatal neurons from EAE mice: glutamate-mediated sEPSCs. In kind it is in vivo. Conditions: LQ-EAE mice 25 mg/kg, n=20; untreated-EAE 4.0±0.2, HC 2.7±0.2. A general note: In patch-clamp work, channel activity is measured electrically.
Experiment [2] concerns human subjects diagnosed with ADHD. The experiment can be described thus: Human ADHD trial. In kind it is in vivo. The note with it: compared to the control group. Here is the method: Laquinimod is administered to human subjects diagnosed with ADHD.
For experiment [3], the system named is glutamatergic transmission in control striatal neurons. The experiment can be described thus: Bath application on corticostriatal slices of wild type mice: sEPSCs (basal glutamatergic transmission). Format: cell-based.
Another experiment has as its target cannabinoid CB1 receptor (Mus musculus, UniProt P47746). Conditions: HU210 1 μM.
For the next experiment, the system named is DAT-CI mice. The experiment can be described thus: Mouse model of ADHD (DAT-CI mice). In kind it is in vivo. An excerpt:
DAT cocaine-insensitive (DAT-CI) mice have a triple point-mutation in the cocaine-binding site of the dopamine […] (DAT) gene. The behavior of DAT-CI mice mimics human ADHD behavior. As previously described, the sensitivity of CB1 receptors controlling GABA-mediated synaptic currents in the striatum of DAT-CI mice was completely lost. ([…] et al., 2011).

A further experiment relates to rat model of ADHD. The experiment can be described thus: Rat model of ADHD. In kind it is in vivo. Conditions: compared to control rats. Here is the method: Laqunimod is tested in a rat model of ADHD.
For experiment [4], the system named is GABAergic transmission in control striatal neurons. The experiment can be described thus: Bath application on corticostriatal slices of wild type mice: sIPSCs (basal GABAergic transmission). In kind it is cell-based.
Setting [5] is: LQ-EAE vs control, dose dependent.
[6] abbreviates: LQ 1 μM bath application, control neurons.
The mark [7] stands for this setting: LQ 1 μM, 12 minutes, control neurons, compared to pre-drug values, second mention.
The mark [8] stands for this setting: LQ 1 μM, 12 minutes, compared to pre-drug values, first mention.

Like-named read-outs stand apart in the source and are kept apart here.

cannabinoid CB1 receptor, sequence (P47746 whole entry): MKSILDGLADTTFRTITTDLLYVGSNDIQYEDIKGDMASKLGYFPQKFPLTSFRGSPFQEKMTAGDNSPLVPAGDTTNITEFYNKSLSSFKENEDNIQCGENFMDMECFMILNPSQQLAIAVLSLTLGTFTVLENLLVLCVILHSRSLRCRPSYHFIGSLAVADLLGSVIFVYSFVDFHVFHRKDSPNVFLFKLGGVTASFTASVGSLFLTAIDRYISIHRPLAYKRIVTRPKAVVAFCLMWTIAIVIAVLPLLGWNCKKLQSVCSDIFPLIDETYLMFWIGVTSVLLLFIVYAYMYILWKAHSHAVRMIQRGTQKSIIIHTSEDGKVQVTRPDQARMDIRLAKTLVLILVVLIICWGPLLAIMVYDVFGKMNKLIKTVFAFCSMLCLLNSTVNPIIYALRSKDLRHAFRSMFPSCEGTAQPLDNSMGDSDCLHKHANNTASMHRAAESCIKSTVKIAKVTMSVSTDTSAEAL
Protocol for cannabinoid CB1 receptor: Recordings were performed between 25 and 35 dpi. Mice were killed by cervical dislocation under halothane anaesthesia, and corticostriatal coronal slices (200 μm) were prepared from fresh tissue blocks of the brain with the use of a vibratome (Centonze et al., 2007, 2009; Rossi et al., 2010a,b). A single slice was then transferred to a recording chamber and submerged in a continuously flowing artificial CSF (ACSF) (34° C., 2-3 ml/min) gassed with 95% O2-5% CO2. The composition of the control ACSF was (in mM): 126 NaCl, 2.5 KCl, 1.2 MgCl2, 1.2 NaH2PO4, 2.4 CaCl2, 11 Glucose, 25 NaHCO3. Recording pipettes were advanced towards individual striatal cells in the slice under positive pressure and visual control (WinVision 2000, Delta Sistemi, Italy) and, on contact, tight GΩ seals were made by applying negative pressure. The membrane patch was then ruptured by suction and membrane current and potential monitored using an Axopatch 1D patch clamp amplifier (Axon Instruments, Foster City, Calif., USA). Whole-cell access resistances measured in voltage clamp were in the range of 5-20 MΩ. Whole-cell patch clamp recordings were made with borosilicate glass pipettes (1.8 mm o.d.; 2-3 MΩ), in voltage-clamp mode, at the holding potential (HP) of −80 mV. […] Synaptic events were stored by using P-CLAMP (Axon Instruments) and analyzed off line on a personal computer with Mini Analysis 5.1 (Synaptosoft, Leonia, N.J., USA) software. […] Offline analysis was performed on spontaneous and miniature synaptic events recorded during fixed time epochs (3-5 min, 3-6 samplings), sampled every 5 or 10 minutes. […]
For data presented as mean ±SE, n indicates the number of cells. One to six cells per animal were recorded. […] Multiple comparisons were analysed by one-way ANOVA followed by Tukey's HSD test. Comparisons between two groups were analysed by paired or unpaired Student's t-test. […]

For the compound `CCN(C(=O)c1c(O)c2c(Cl)cccc2n(C)c1=O)c1ccccc1` [LQ, N-ethyl-N-phenyl-1,2-dihydro-4-hydroxy-5-chloro-1-methyl-2-oxoquinoline-3-carboxamide], in the experiment on spinal cord of EAE mice (setting [5]), the Demyelination result is on record as “reduced” and the axonal loss result was “reduced”. Further, in the experiment on spinal cord of EAE mice (LQ-EAE vs untreated-EAE mice), the “number of T lymphocytes (CD3+) in cellular infiltrates” value was “diminished number”, the “number of microglia/macrophages (Isolectin B4+) in cellular infiltrates” value is reported as “diminished number” and the “numbers of infiltrates within spinal cord sections” value is “reduction in numbers of infiltrates”. Further, the “effect on EAE clinical course” value with EAE mice was “significantly suppresses EAE in a dose-dependent manner”. For the same compound, the “frequency of sEPSCs” value in experiment [1] was found to be 3.4±0.4 Hz. In experiment [2], the “result in human ADHD subjects” value is given as “alleviation of inattention, hyperactivity or impulsivity”. Moreover, in experiment [3] (setting [6]), the “amplitude of sEPSCs” value is on record as “failed to alter” and the “frequency of sEPSCs” value is given as “failed to alter”. In experiment [3] (setting [7]), this compound gave a sIPSC decay time of 101±2% and a sIPSC rise time of 99±1%. For the same compound, in experiment [3] (LQ 10-30 μM bath application, control neurons, n=10), the sEPSC amplitude entry was “reducing sEPSC amplitude”. The “frequency of sEPSCs, respect to pre-drug values” in experiment [3] (highest concentration of LQ, n=7) came to 83±2.7%. For the same compound, the “sIPSC frequency during HU210, respect to pre-drug values” on cannabinoid CB1 receptor (striatal neurons from LQ-EAE mice (25 mg/kg), n=10) was determined as 75±3%. In addition, the “sensitivity of CB1 receptors to CB1 receptor agonist HU210” value in the experiment on DAT-CI mice (DAT-CI mice) is “restored sensitivity”. The locomotor activity entry in the experiment with DAT-CI mice (DAT-CI mice compared to control mice) was “decreased locomotor activity”. Further, the “result in rat model of ADHD” value with rat model of ADHD was “positive results”. In experiment [4] (LQ 1 μM bath application), the “amplitude of sIPSCs” value is reported as “failed to alter” and the “frequency of sIPSCs” value was “failed to alter”. In [4] (setting [8]), this compound gave a sIPSC decay time of 98±3% and a sIPSC rise time of 101±2%.
In the case of `N#Cc1cc2[nH]c(=O)c(=O)[nH]c2cc1[N+](=O)[O-]` [CNQX], the “blockade of sEPSCs” value in experiment [3] (recorded in the presence of LQ, n=5, CNQX 10 μM) is on record as “fully blocked”.
As to `CCCCCCC(C)(C)c1cc(O)c2c(c1)OC(C)(C)[C@@H]1CC=C(CO)C[C@@H]21` [HU210], the “sIPSC frequency during HU210, respect to pre-drug values” on cannabinoid CB1 receptor (control slices, 10 min, n=8) turned out to be 76±3%; on cannabinoid CB1 receptor (striatal neurons from untreated EAE mice, n=10), 101±3%.
